Experimental data: article PMC3003779 (Chemistry & biology, 2010)
Where two headings read alike, the source gives them in different places.

Tests used:
[1] = test system: SHR and WKY rats; assay: mean arterial pressure and heart rate in anesthetized rats; type: in vivo, rat; details: for hypotensive effect: 0.3 mg/kg
[2] = biological target: CB1 receptor (Rattus norvegicus, UniProt P20272); assay: HU210-stimulated [35S]GTPγS binding in brain membranes; type: biochemical; details: brain membrane preparations, SHR vs WKY
[3] = biological target: T1, human recombinant FAAH (Homo sapiens, UniProt O00519); assay: biochemical; details: in vitro
T1 sequence (O00519 1-579): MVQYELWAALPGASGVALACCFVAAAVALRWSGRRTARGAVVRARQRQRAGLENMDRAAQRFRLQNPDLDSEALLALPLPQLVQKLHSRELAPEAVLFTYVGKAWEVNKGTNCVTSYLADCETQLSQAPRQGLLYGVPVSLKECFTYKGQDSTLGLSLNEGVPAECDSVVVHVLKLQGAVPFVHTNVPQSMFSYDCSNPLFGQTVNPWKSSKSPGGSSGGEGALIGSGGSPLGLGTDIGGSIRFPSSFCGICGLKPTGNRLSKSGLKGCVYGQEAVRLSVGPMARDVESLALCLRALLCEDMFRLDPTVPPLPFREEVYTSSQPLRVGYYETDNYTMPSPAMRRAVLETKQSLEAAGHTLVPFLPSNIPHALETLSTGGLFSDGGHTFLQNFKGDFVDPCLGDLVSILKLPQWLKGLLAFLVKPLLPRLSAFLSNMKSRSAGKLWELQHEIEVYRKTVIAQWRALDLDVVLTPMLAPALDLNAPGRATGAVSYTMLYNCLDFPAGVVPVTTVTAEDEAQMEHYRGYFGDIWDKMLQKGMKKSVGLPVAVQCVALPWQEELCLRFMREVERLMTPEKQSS

[4] = test system: anandamide levels in hepatocytes; assay: anandamide levels in hepatocytes; type: cell-based, mouse; details: 100 nM, dense suspension 40 mg/mL
[5] = test system: Mouse hepatocytes; assay: drug levels in hepatocyte suspensions by LC/MS/MS
[6] = biological target: T2, FAAH (Mus musculus, UniProt O08914); assay: in vivo; type: in vivo; details: mouse
T2 sequence (O08914 1-579): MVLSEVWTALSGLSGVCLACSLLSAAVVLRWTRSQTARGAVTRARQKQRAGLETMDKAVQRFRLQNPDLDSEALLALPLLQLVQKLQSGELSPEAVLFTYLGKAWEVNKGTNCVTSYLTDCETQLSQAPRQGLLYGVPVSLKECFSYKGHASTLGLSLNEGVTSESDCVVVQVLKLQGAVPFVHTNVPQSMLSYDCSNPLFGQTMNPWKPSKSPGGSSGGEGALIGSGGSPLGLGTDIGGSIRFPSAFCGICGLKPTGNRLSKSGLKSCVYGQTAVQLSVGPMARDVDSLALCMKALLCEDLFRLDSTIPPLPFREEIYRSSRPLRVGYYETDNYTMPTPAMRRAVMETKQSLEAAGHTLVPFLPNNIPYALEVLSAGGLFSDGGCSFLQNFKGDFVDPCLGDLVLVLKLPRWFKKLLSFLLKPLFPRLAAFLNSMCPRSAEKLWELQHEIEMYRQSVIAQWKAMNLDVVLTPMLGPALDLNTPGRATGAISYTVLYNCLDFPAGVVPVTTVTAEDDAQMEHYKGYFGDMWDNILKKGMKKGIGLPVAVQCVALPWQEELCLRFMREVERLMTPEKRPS

[7] = test system: mice with diet-induced obesity; assay: intraperitoneal glucose tolerance test in mice on high-fat diet; type: in vivo, mouse
[8] = biological target: T2, FAAH; assay: FAAH activity in brain and liver homogenates, drug added in vitro; type: biochemical
[9] = test system: SHR and WKY rats; assay: non-fasting blood glucose in rats; details: 10 mg/kg i.p.
[10] = biological target: T2, FAAH; type: cell-based

Chain of CB1 receptor (P20272 whole entry): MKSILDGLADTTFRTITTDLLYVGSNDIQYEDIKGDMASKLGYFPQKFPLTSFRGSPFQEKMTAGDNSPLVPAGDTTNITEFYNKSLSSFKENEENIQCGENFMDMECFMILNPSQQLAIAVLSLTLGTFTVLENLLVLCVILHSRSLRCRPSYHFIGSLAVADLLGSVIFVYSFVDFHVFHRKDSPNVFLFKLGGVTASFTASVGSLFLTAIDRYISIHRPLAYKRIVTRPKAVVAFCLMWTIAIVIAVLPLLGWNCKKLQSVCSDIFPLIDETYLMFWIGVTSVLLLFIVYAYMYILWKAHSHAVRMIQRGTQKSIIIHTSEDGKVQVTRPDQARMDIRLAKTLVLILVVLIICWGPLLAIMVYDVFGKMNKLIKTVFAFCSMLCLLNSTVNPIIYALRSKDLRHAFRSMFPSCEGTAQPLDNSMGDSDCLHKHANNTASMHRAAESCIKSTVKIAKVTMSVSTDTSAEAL

Cc1c(C(=O)NN2CCCCC2)nn(-c2ccc(Cl)cc2Cl)c1-c1ccc(I)cc1 [AM251]
effect on the effects of HU210 ([1]; SHR and WKY): abolished
effect of pretreatment on the MAP and HR effects of AM3506 ([1]; SHR, 3 mg/kg i.p. 60 min before 1 mg/kg AM3506 i.v.): prevented
acute reversal of the fully developed effects of AM3506 ([1]; SHR, 3 mg/kg i.v. at the peak hypotensive response to 1 mg/kg AM3506): acutely reversed

CCCCCOc1ccc(C(=O)c2cccc3ccccc23)c2ccccc12 [CB13]
hypotensive effect ([1]; SHR): −40±6 mmHg
hypotensive effect ([1]; WKY): −36±10 mmHg

CCCCCCC(C)(C)c1cc(O)c2c(c1)OC(C)(C)[C@@H]1CC=C(CO)C[C@@H]21 [HU210]
CB1 receptor coupling efficiency, HU210-stimulated GTPγS labeling [2]: dramatically increased
hypotension, SHR compared with WKY ([1]; 1 μg/kg i.v., anaesthetized rats): much greater hypotension in SHR than in WKY

O=S(=O)(F)Cc1ccccc1 [PMSF, phenyl methyl sulfonyl fluoride, reference compound]
potency against human recombinant FAAH relative to AM3506 and URB597 [3]: 3 orders of magnitude less potent

NC(=O)c1cccc(-c2cccc(OC(=O)NC3CCCCC3)c2)c1 [URB597, reference compound]
anandamide levels in hepatocytes [4]: markedly increased
recovery of drug from cell-free medium ([5]; 0 to 30 min, no hepatocytes): remained constant
drug level in cell pellets, dense hepatocyte suspension ([5]; 100 nM, 40 mg/mL): gradually declined over 10 min
drug level in medium, dense hepatocyte suspension ([5]; 100 nM, 40 mg/mL): rapidly depleted from the medium
free drug (parent ion) still present in cell-free supernatant ([5]; dilute hepatocyte suspension 1 mg/mL, 100 nM, 10 min, % of drug added at 0 min): 50–55%
suppression of FAAH activity in brain ([6]; in vivo, po, 10 mg/kg): 86±2%
suppression of FAAH activity in liver ([6]; in vivo, po, 10 mg/kg): 83±0.5%
ED50 ([6]; read-out: ID50, inhibition of brain FAAH activity): 0.22 mg/kg
ED50 ([6]; read-out: ID50, inhibition of liver FAAH activity): 0.45 mg/kg
ipGTT area under the curve (AUC) ([7]; liver-specific CB1 knockout (LCB1−/−) mice on HFD, vehicle 322±37): 337 ± 14 mg·h/dL
effect on glucose tolerance ([7]; liver-specific CB1−/− mice on HFD, 1.38 mg/kg): failed to affect glucose tolerance
effect on glucose tolerance ([7]; liver-specific CB1−/− mice on HFD, 10 mg/kg): remained ineffective
effect on glucose tolerance ([7]; male DIO mice, 1.38 mg/kg): marked increase in glucose intolerance
ipGTT area under the curve (AUC) ([7]; male DIO mice, 1.38 mg/kg i.p. 60 min before glucose, vehicle 352±28): 570 ± 45 mg·h/dL
effect on glucose tolerance ([7]; wild-type mice on HFD, 10 mg/kg, compared with the lower dose): same degree of glucose intolerance
FAAH activity in tissue homogenates [8]: equally effective in blocking FAAH activity in brain and liver
non-fasting blood glucose after treatment ([9]; SHR, from 104.0±7.4): 144.0 ± 9.6 mg/dL
non-fasting blood glucose after treatment ([9]; WKY, from 90.0±7.2): 135.3 ± 12.9 mg/dL
hypotensive/bradycardic potency, times less potent than AM3506 ([1]; anesthetized SHR): ~ 40 times
FAAH activity in cell pellet, dilute hepatocyte suspension [10]: nearly completely blocked
FAAH activity in cells, dense hepatocyte suspension [10]: rapidly and nearly completely blocked

Cc1c(C(=O)NN2CCCCC2)nn(-c2ccc(Cl)cc2Cl)c1-c1ccc(Cl)cc1 [rimonabant]
ΔHR, acute reversal of AM3506 effect ([1]; SHR, 3 mg/kg, after AM3506): +129±14 bpm
ΔMBP, acute reversal of AM3506 effect ([1]; SHR, 3 mg/kg, after AM3506): +101±9 mmHg
